Experiments:
Assay type in all cases: in vivo
[1] = test system: Polygonum persicaria; experiment: Post emergence treatment, herbicidal activity against POLPE
Procedure: (§1) Synergism can be described as an interaction where the combined effect of two or more compounds is greater than the sum of the individual effects of each of the compounds. […] However, the weed control afforded by the compounds, mixtures or compositions is not limited to these species.The analysis of synergism or antagonism between the mixtures or compositions was determined using Colby's equation. Analogously, the Colby's equation can be used to determine synergism of 3-way and higher mixtures: [table] Post Emergence Treatment by the Mixture of (Imazamox+Imazethapyr)+Fomesafen Post Emergence Treatment by the Mixture of (Imazamox+Imazethapyr)+Sulfentrazone

[2] = test system: Panicum miliaceum; experiment: Post emergence treatment, herbicidal activity against PANMI; details: Example 3, post emergence; g ai/ha: imazethapyr 15, imazamox 15, sulfentrazone 6, mixture (15 + 15) + 6
Procedure: as §1, with “of” for “of (Imazamox+Imazethapyr)+Fomesafen Post Emergence Treatment by the Mixture of”

[3] = test system: Conyza canadensis; experiment: Post emergence treatment, herbicidal activity against ERICA
Procedure: as §1, with “(Imazamox+Imazethapyr)+Bentazon” for “(Imazamox+Imazethapyr)+Fomesafen”, “(Imazamox+Imazethapyr)+Fomesafen” for “(Imazamox+Imazethapyr)+Sulfentrazone”

[4] = test system: Convolvulus arvensis; experiment: Post emergence treatment, herbicidal activity against CONAR; details: Example 2, post emergence; g ai/ha: imazethapyr 15, imazamox 15, fomesafen 6, mixture (15 + 15) + 6
Procedure: as §1, with “(Imazamox+Imazethapyr)+Fomesafen” for “(Imazamox+Imazethapyr)+Fomesafen Post Emergence Treatment by the Mixture of (Imazamox+Imazethapyr)+Sulfentrazone”

[5] = test system: Leptochloa fusca; experiment: Post emergence treatment, herbicidal activity against LEFFA
Procedure: as §1, with “Mixture of (Imazamox+Imazethapyr)+Bentazon Post Emergence Treatment by the Mixture of (Imazamox+Imazethapyr)+Fomesafen Post” for “Mixture of (Imazamox+Imazethapyr)+Fomesafen Post”

[6] = test system: Geranium dissectum; experiment: Post emergence treatment, herbicidal activity against GERDI; parameters: scale not given here
Procedure: as §1, with “Mixture of (Imazamox+Imazethapyr)+Bentazon Post Emergence Treatment by the Mixture of (Imazamox+Imazethapyr)+Fomesafen Post” for “Mixture of (Imazamox+Imazethapyr)+Fomesafen Post”

[7] = test system: Digitaria sanguinalis; experiment: Post emergence treatment, herbicidal activity against DIGSA; details: Example 1, post emergence; g ai/ha: imazethapyr 15, imazamox 15, bentazon 50, mixture (15 + 15) + 50
Procedure: as §1, with “(Imazamox+Imazethapyr)+Bentazon” for “(Imazamox+Imazethapyr)+Fomesafen Post Emergence Treatment by the Mixture of (Imazamox+Imazethapyr)+Sulfentrazone”

[8] = test system: Sesbania exaltata; experiment: Post emergence treatment, herbicidal activity against SEBEX; parameters: scale not given here
Procedure: as §1, with “Mixture of (Imazamox+Imazethapyr)+Bentazon Post Emergence Treatment by the Mixture of (Imazamox+Imazethapyr)+Fomesafen Post” for “Mixture of (Imazamox+Imazethapyr)+Fomesafen Post”

[9] = test system: Ambrosia artemisiifolia; experiment: Post emergence treatment, herbicidal activity against AMBEL
Procedure: as §1, with “(Imazamox+Imazethapyr)+Bentazon” for “(Imazamox+Imazethapyr)+Fomesafen”, “(Imazamox+Imazethapyr)+Fomesafen” for “(Imazamox+Imazethapyr)+Sulfentrazone”

[10] = test system: Echinochloa crus-galli; experiment: Post emergence treatment, herbicidal activity against ECHCG; details: Example 1, post emergence; g ai/ha: imazethapyr 15, imazamox 15, bentazon 50, mixture (15 + 15) + 50
Procedure: as §1, with “(Imazamox+Imazethapyr)+Bentazon” for “(Imazamox+Imazethapyr)+Fomesafen Post Emergence Treatment by the Mixture of (Imazamox+Imazethapyr)+Sulfentrazone”

[11] = test system: Brachiaria decumbens; experiment: Post emergence treatment, herbicidal activity against BRADC; details: Example 3, post emergence; g ai/ha: imazethapyr 15, imazamox 15, sulfentrazone 10, mixture (15 + 15) + 10
Procedure: as §1, with “of” for “of (Imazamox+Imazethapyr)+Fomesafen Post Emergence Treatment by the Mixture of”

[12] = test system: Abutilon theophrasti; experiment: Post emergence treatment, herbicidal activity against ABUTH; details: Example 1, post emergence; g ai/ha: imazethapyr 15, imazamox 15, bentazon 25, mixture (15 + 15) + 25
Procedure: as §1, with “(Imazamox+Imazethapyr)+Bentazon” for “(Imazamox+Imazethapyr)+Fomesafen Post Emergence Treatment by the Mixture of (Imazamox+Imazethapyr)+Sulfentrazone”

[13] = test system: Setaria faberi; experiment: Post emergence treatment, herbicidal activity against SETFA
Procedure: as §1, with “(Imazamox+Imazethapyr)+Bentazon” for “(Imazamox+Imazethapyr)+Fomesafen”

[14] = test system: Phalaris canariensis; experiment: Post emergence treatment, herbicidal activity against PHACA; parameters: scale not given here
Procedure: as §1, with “Mixture of (Imazamox+Imazethapyr)+Bentazon Post Emergence Treatment by the Mixture of (Imazamox+Imazethapyr)+Fomesafen Post” for “Mixture of (Imazamox+Imazethapyr)+Fomesafen Post”

[15] = Example 2, post emergence, g ai/ha: imazethapyr 15, imazamox 15, fomesafen 6, mixture (15 + 15) + 6
[16] = Example 3, post emergence, g ai/ha: imazethapyr 15, imazamox 15, sulfentrazone 10, mixture (15 + 15) + 10
[17] = Example 1, post emergence, g ai/ha: imazethapyr 15, imazamox 15, bentazon 50, mixture (15 + 15) + 50
[18] = Example 2, post emergence, g ai/ha: imazethapyr 15, imazamox 15, fomesafen 10, mixture (15 + 15) + 10
[19] = Example 1, post emergence, g ai/ha: imazethapyr 15, imazamox 15, bentazon 25, mixture (15 + 15) + 25
[20] = Example 3, post emergence, g ai/ha: imazethapyr 15, imazamox 15, sulfentrazone 6, mixture (15 + 15) + 6

COCc1cnc(C2=NC(C)(C(C)C)C(=O)N2)c(C(=O)O)c1 (racemic) [Imazamox, 2-[(RS)-4-isopropyl-4-methyl-5-oxo-2-imidazolin-2-yl]-5-methoxymethylnicotinic acid]
Herbicidal activity against POLPE Found [1, 15]: 95 | Herbicidal activity against POLPE Found [1, 16]: 95 | Herbicidal activity against PANMI Found [2]: 98 | Herbicidal activity against ERICA Found [3, 17]: 60 | Herbicidal activity against ERICA Found [3, 18]: 60 | Herbicidal activity against CONAR Found [4]: 75 | Herbicidal activity against LEFFA Found [5, 19]: 85 | Herbicidal activity against LEFFA Found [5, 15]: 85 | Herbicidal activity against LEFFA Found [5, 20]: 85 | Herbicidal activity against GERDI Found [6, 19]: 80 | Herbicidal activity against GERDI Found [6, 15]: 80 | Herbicidal activity against GERDI Found [6, 18]: 95 | Herbicidal activity against GERDI Found [6, 20]: 80 | Herbicidal activity against DIGSA Found [7]: 98 | Herbicidal activity against SEBEX Found [8, 17]: 45 | Herbicidal activity against SEBEX Found [8, 18]: 45 | Herbicidal activity against SEBEX Found [8, 16]: 45 | Herbicidal activity against AMBEL Found [9, 19]: 98 | Herbicidal activity against AMBEL Found [9, 18]: 70 | Herbicidal activity against ECHCG Found [10]: 98 | Herbicidal activity against BRADC Found [11]: 35 | Herbicidal activity against ABUTH Found [12]: 95 | Herbicidal activity against SETFA Found [13, 17]: 98 | Herbicidal activity against SETFA Found [13, 20]: 98 | Herbicidal activity against PHACA Found [14, 19]: 65 | Herbicidal activity against PHACA Found [14, 15]: 65 | Herbicidal activity against PHACA Found [14, 20]: 65

CCc1cnc(C2=NC(C)(C(C)C)C(=O)N2)c(C(=O)O)c1 (racemic) [Imazethapyr, 5-ethyl-2-[(RS)-4-isopropyl-4-methyl-5-oxo-2-imidazolin-2-yl]nicotinic acid]
Herbicidal activity against POLPE Found [1, 15]: 0 | Herbicidal activity against POLPE Found [1, 16]: 75 | Herbicidal activity against PANMI Found [2]: 70 | Herbicidal activity against ERICA Found [3, 17]: 55 | Herbicidal activity against ERICA Found [3, 18]: 55 | Herbicidal activity against CONAR Found [4]: 65 | Herbicidal activity against LEFFA Found [5, 19]: 45 | Herbicidal activity against LEFFA Found [5, 15]: 45 | Herbicidal activity against LEFFA Found [5, 20]: 45 | Herbicidal activity against GERDI Found [6, 19]: 65 | Herbicidal activity against GERDI Found [6, 15]: 65 | Herbicidal activity against GERDI Found [6, 18]: 65 | Herbicidal activity against GERDI Found [6, 20]: 65 | Herbicidal activity against DIGSA Found [7]: 80 | Herbicidal activity against SEBEX Found [8, 17]: 0 | Herbicidal activity against SEBEX Found [8, 18]: 0 | Herbicidal activity against SEBEX Found [8, 16]: 0 | Herbicidal activity against AMBEL Found [9, 19]: 98 | Herbicidal activity against AMBEL Found [9, 18]: 65 | Herbicidal activity against ECHCG Found [10]: 80 | Herbicidal activity against BRADC Found [11]: 10 | Herbicidal activity against ABUTH Found [12]: 50 | Herbicidal activity against SETFA Found [13, 17]: 90 | Herbicidal activity against SETFA Found [13, 20]: 95 | Herbicidal activity against PHACA Found [14, 19]: 30 | Herbicidal activity against PHACA Found [14, 15]: 30 | Herbicidal activity against PHACA Found [14, 20]: 30

CC(C)N1C(=O)c2ccccc2NS1(=O)=O [Bentazon, 3-isopropyl-1H-2,1,3-benzothiadiazin-4(3H)-one 2,2-dioxide]
Herbicidal activity against ERICA Found [3, 17]: 40 | Herbicidal activity against LEFFA Found [5, 19]: 0 | Herbicidal activity against GERDI Found [6, 19]: 0 | Herbicidal activity against DIGSA Found [7]: 40 | Herbicidal activity against SEBEX Found [8, 17]: 40 | Herbicidal activity against AMBEL Found [9, 19]: 0 | Herbicidal activity against ECHCG Found [10]: 35 | Herbicidal activity against ABUTH Found [12]: 0 | Herbicidal activity against SETFA Found [13, 17]: 10 | Herbicidal activity against PHACA Found [14, 19]: 0

CS(=O)(=O)NC(=O)c1cc(Oc2ccc(C(F)(F)F)cc2Cl)ccc1[N+](=O)[O-] [Fomesafen, 5-(2-chloro-α,α,α-trifluoro-p-tolyloxy)-N-mesyl-2-nitrobenzamide]
Herbicidal activity against POLPE Found [1, 15]: 20 | Herbicidal activity against ERICA Found [3, 18]: 30 | Herbicidal activity against CONAR Found [4]: 0 | Herbicidal activity against LEFFA Found [5, 15]: 0 | Herbicidal activity against GERDI Found [6, 15]: 0 | Herbicidal activity against GERDI Found [6, 18]: 70 | Herbicidal activity against SEBEX Found [8, 18]: 80 | Herbicidal activity against AMBEL Found [9, 18]: 65 | Herbicidal activity against PHACA Found [14, 15]: 0

Cc1nn(-c2cc(NS(C)(=O)=O)c(Cl)cc2Cl)c(=O)n1C(F)F [Sulfentrazone, 2′,4′-dichloro-5′-(4-difluoromethyl-4,5-dihydro-3-methyl-5-oxo-1H-1,2,4-triazol-1-yl)methanesulfonanilide]
Herbicidal activity against POLPE Found [1, 16]: 80 | Herbicidal activity against PANMI Found [2]: 0 | Herbicidal activity against LEFFA Found [5, 20]: 0 | Herbicidal activity against GERDI Found [6, 20]: 0 | Herbicidal activity against SEBEX Found [8, 16]: 80 | Herbicidal activity against BRADC Found [11]: 30 | Herbicidal activity against SETFA Found [13, 20]: 0 | Herbicidal activity against PHACA Found [14, 20]: 0
